Tests used:
human malaria parasites [1] = assay: [3H]-hypoxanthine incorporation (de novo nucleic acid synthesis) in infected human red blood cells, Example 1; format: cell-based; conditions: for Specific Radioactivity Incorporation (%) [^3H]-Hypoxanthine: 25 hours, value at 0.01 μM set to 100%
Experimental: (§1) Human red blood cells infected at an infection rate of 2% with ring-stage human malaria parasites were cultured in RPMI1640 medium containing AlbuMAX-II (Invitrogen) at 37° C. and a hematocrit of 4%. 50 μL of the culture was mixed with 50 μL of a medium containing Alaremycin to the concentrations shown in Table 1, to which [^3H]-hypoxanthine and [^14C]-isoleucine isoleucine were then added, followed by culture in a 96-well plate at 37° C. The repeat number was 2 for each concentration. After 25 hours, they were examined and the amount of (3-rays released from [^3H]-hypoxanthine incorporated into a nucleic acid with de novo nucleic acid synthesis or from [^14C]-isoleucine incorporated into a protein with de novo protein synthesis was measured using a scintillation counter. The averages of the measured values were calculated, and the specific radioactivity incorporation was calculated by setting the measured value in the experiment for which Alaremycin was contained at a final concentration of 0.01 μM, to 100%. The results are shown in Table 1.

human malaria parasites [2] = assay: [14C]-isoleucine incorporation (de novo protein synthesis) in infected human red blood cells, Example 1; format: cell-based; conditions: 25 hours, value at 0.01 μM set to 100%
Experimental: as §1

human malaria parasites [3] = assay: [3H]-hypoxanthine incorporation (de novo nucleic acid synthesis) in infected human red blood cells, Example 2; format: cell-based; conditions: for specific radioactivity incorporation, [^3H]-hypoxanthine: 25 hours, value at 0.1 μM set to 100%
Experimental: Human red blood cells infected at an infection rate of 2% with ring-stage human malaria parasites were cultured in RPMI1640 medium containing AlbuMAX-II at 37° C. and a hematocrit of 4%. 50 μL of a medium containing Alaremycin or any of the other compounds shown in Table 2 was mixed with 50 μL of the culture to the indicated concentrations, to which [^3H]-hypoxanthine was then added, followed by culture in a 96-well plate at 37° C. The repeat number was 2 for each concentration. After 25 hours, they were examined and the amount β-rays released from [^3H]-hypoxanthine incorporated into a nucleic acid with de novo nucleic acid synthesis was measured using a scintillation counter. The averages of the measured values were calculated, and the specific radioactivity incorporation was calculated by setting the measured value in the experiment for which each compound is contained at a final concentration of 0.1 μM, to 100%.

[4] = target: porphobilinogen synthase (PBGS) (Pseudomonas aeruginosa, UniProt Q59643); conditions: Non-patent Document 3; cited from earlier work
Escherichia coli = conditions: Non-patent Documents 2, 3; cited from earlier work
Pseudomonas aeruginosa = conditions: Non-patent Document 3; cited from earlier work

Chain of porphobilinogen synthase (PBGS) (Q59643 whole entry): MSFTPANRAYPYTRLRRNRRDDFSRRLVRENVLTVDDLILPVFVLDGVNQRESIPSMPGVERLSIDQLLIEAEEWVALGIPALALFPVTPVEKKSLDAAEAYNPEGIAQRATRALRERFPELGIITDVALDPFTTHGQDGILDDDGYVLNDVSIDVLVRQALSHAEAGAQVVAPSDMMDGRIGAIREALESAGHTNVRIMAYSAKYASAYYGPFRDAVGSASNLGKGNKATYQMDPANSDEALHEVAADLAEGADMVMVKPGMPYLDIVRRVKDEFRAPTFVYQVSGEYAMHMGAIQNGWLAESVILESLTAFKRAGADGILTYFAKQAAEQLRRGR

Compound: C=C(NC(C)=O)C(=O)CCC(=O)O [Alaremycin, 5-acetamido-4-oxo-5-hexenoic acid]
- Specific Radioactivity Incorporation (%) [^3H]-Hypoxanthine (human malaria parasites [1]; 0.01 μM): 100%
- Specific Radioactivity Incorporation (%) [^3H]-Hypoxanthine (human malaria parasites [1]; 0.1 μM): 100.4%
- Specific Radioactivity Incorporation (%) [^3H]-Hypoxanthine (human malaria parasites [1]; 1 μM): 92.8%
- Specific Radioactivity Incorporation (%) [^3H]-Hypoxanthine (human malaria parasites [1]; 5 μM): 84.8%
- Specific Radioactivity Incorporation (%) [^3H]-Hypoxanthine (human malaria parasites [1]; 10 μM): 66.8%
- Specific Radioactivity Incorporation (%) [^3H]-Hypoxanthine (human malaria parasites [1]; 50 μM): 2.8%
- Specific Radioactivity Incorporation (%) [^3H]-Hypoxanthine (human malaria parasites [1]; 100 μM): 1.5%
- Specific Radioactivity Incorporation (%) [^3H]-Hypoxanthine (human malaria parasites [1]; 200 μM): 1.1%
- inhibition at 15 µM (human malaria parasites [1]; Homo sapiens, Erythrocyte, 15 μM, rough statement for both [^3H]-hypoxanthine and [^14C]-isoleucine, read-out: inhibition of radioactivity incorporation): ~50%
- inhibition at 50 µM (human malaria parasites [1]; Homo sapiens, Erythrocyte, 50 μM, rough statement for both [^3H]-hypoxanthine and [^14C]-isoleucine, read-out: inhibition of radioactivity incorporation): ≥ 95%
- inhibition of nucleic acid metabolism and protein synthesis in human malaria parasites (in words) (human malaria parasites [1]; measured as in Example 1, both nucleic acid and protein synthesis): inhibited by Alaremycin in a concentration-dependent manner
- Specific Radioactivity Incorporation (%) [^14C]-Isoleucine (human malaria parasites [2]; 0.01 μM): 100%
- Specific Radioactivity Incorporation (%) [^14C]-Isoleucine (human malaria parasites [2]; 0.1 μM): 93.3%
- Specific Radioactivity Incorporation (%) [^14C]-Isoleucine (human malaria parasites [2]; 1 μM): 88.8%
- Specific Radioactivity Incorporation (%) [^14C]-Isoleucine (human malaria parasites [2]; 5 μM): 84.7%
- Specific Radioactivity Incorporation (%) [^14C]-Isoleucine (human malaria parasites [2]; 10 μM): 64.8%
- Specific Radioactivity Incorporation (%) [^14C]-Isoleucine (human malaria parasites [2]; 50 μM): 3.6%
- Specific Radioactivity Incorporation (%) [^14C]-Isoleucine (human malaria parasites [2]; 100 μM): 2.1%
- Specific Radioactivity Incorporation (%) [^14C]-Isoleucine (human malaria parasites [2]; 200 μM): 1%
- specific radioactivity incorporation, [^3H]-hypoxanthine (human malaria parasites [3]; 0.1 μM): 100%
- specific radioactivity incorporation, [^3H]-hypoxanthine (human malaria parasites [3]; 1 μM): 100.5%
- specific radioactivity incorporation, [^3H]-hypoxanthine (human malaria parasites [3]; 5 μM): 90.7%
- specific radioactivity incorporation, [^3H]-hypoxanthine (human malaria parasites [3]; 10 μM): 83.8%
- specific radioactivity incorporation, [^3H]-hypoxanthine (human malaria parasites [3]; 50 μM): 2.8%
- specific radioactivity incorporation, [^3H]-hypoxanthine (human malaria parasites [3]; 100 μM): 1.6%
- inhibition of nucleic acid metabolism in human malaria parasites (in words) (human malaria parasites [3]; compared to succinylacetone and 4,7-dioxosebacic acid): sufficiently inhibit nucleic acid metabolism in human malaria parasites in a significantly low concentration
- inhibition of porphobilinogen synthase (in words) [4]: act as an inhibitor of porphobilinogen synthase (PBGS)
- antibacterial activity (in words) (Escherichia coli): has antibacterial activities
- antibacterial activity (in words) (Pseudomonas aeruginosa): has antibacterial activities

Compound: O=C(O)CCC(=O)CCC(=O)CCC(=O)O [4,7-Dioxosebacic acid, 4,7-dioxosebacic acid]
- specific radioactivity incorporation, [^3H]-hypoxanthine (human malaria parasites [3]; 0.1 μM): 100%
- specific radioactivity incorporation, [^3H]-hypoxanthine (human malaria parasites [3]; 1 μM): 110.3%
- specific radioactivity incorporation, [^3H]-hypoxanthine (human malaria parasites [3]; 5 μM): 106.9%
- specific radioactivity incorporation, [^3H]-hypoxanthine (human malaria parasites [3]; 10 μM): 103.4%
- specific radioactivity incorporation, [^3H]-hypoxanthine (human malaria parasites [3]; 50 μM): 108%
- specific radioactivity incorporation, [^3H]-hypoxanthine (human malaria parasites [3]; 100 μM): 102.1%
- specific radioactivity incorporation, [^3H]-hypoxanthine (human malaria parasites [3]; 500 μM): 106.8%
- specific radioactivity incorporation, [^3H]-hypoxanthine (human malaria parasites [3]; 1000 μM): 100.1%
- specific radioactivity incorporation, [^3H]-hypoxanthine (human malaria parasites [3]; 5000 μM): 100%
- specific radioactivity incorporation, [^3H]-hypoxanthine (human malaria parasites [3]; 10000 μM): 97.1%

Compound: CC(=O)CC(=O)CCC(=O)O [Succinylacetone, 4,6-dioxoheptanoic acid]
- specific radioactivity incorporation, [^3H]-hypoxanthine (human malaria parasites [3]; 0.1 μM): 100%
- specific radioactivity incorporation, [^3H]-hypoxanthine (human malaria parasites [3]; 1 μM): 94.4%
- specific radioactivity incorporation, [^3H]-hypoxanthine (human malaria parasites [3]; 5 μM): 94.3%
- specific radioactivity incorporation, [^3H]-hypoxanthine (human malaria parasites [3]; 10 μM): 94.7%
- specific radioactivity incorporation, [^3H]-hypoxanthine (human malaria parasites [3]; 50 μM): 99.8%
- specific radioactivity incorporation, [^3H]-hypoxanthine (human malaria parasites [3]; 100 μM): 90.9%
- specific radioactivity incorporation, [^3H]-hypoxanthine (human malaria parasites [3]; 500 μM): 94.4%
- specific radioactivity incorporation, [^3H]-hypoxanthine (human malaria parasites [3]; 1000 μM): 88.6%
- specific radioactivity incorporation, [^3H]-hypoxanthine (human malaria parasites [3]; 5000 μM): 58.8%
- specific radioactivity incorporation, [^3H]-hypoxanthine (human malaria parasites [3]; 10000 μM): 21.4%

Compound: NCC(=O)CCC(=O)O [5-Aminolevulinic acid, 5-aminolevulinic acid]
- specific radioactivity incorporation, [^3H]-hypoxanthine (human malaria parasites [3]; 0.1 μM): 100%
- specific radioactivity incorporation, [^3H]-hypoxanthine (human malaria parasites [3]; 1 μM): 102.7%
- specific radioactivity incorporation, [^3H]-hypoxanthine (human malaria parasites [3]; 5 μM): 108.5%
- specific radioactivity incorporation, [^3H]-hypoxanthine (human malaria parasites [3]; 10 μM): 104.4%
- specific radioactivity incorporation, [^3H]-hypoxanthine (human malaria parasites [3]; 50 μM): 97.3%
- specific radioactivity incorporation, [^3H]-hypoxanthine (human malaria parasites [3]; 100 μM): 101.2%

Source: patent US20130217913A1, “Antimalarial Drug Comprising Alaremycin or Derivative Thereof as Active Ingredient” (SBI Pharmaceuticals Co., Ltd., priority 2010, published 2013)
